Data: article PMC7464304, “Multiple-Reaction Monitoring Tandem Mass Method for Determination of Phenolics and Water-Soluble Vitamins in Eccoilopus formosanus” (Molecules, 2020)

Assay: DPPH radical scavenging activity
Conditions: 0.1 mM DPPH, 30 min in the dark at room temperature, absorbance 517 nm; mean ± SD (n = 3)
Protocol: The reaction mixture was left in the dark at room temperature for 30 min. […] The percentage of scavenging activity against the DPPH radical was calculated by the following equation:Radical scavenging activity (%) = (Abs control − Abs sample)/Abs control × 100% where Abs control is the absorbance of the DPPH radical in methanol; Abs sample is the absorbance of the DPPH radical solution mixed with the sample extract. […] All determinations were performed in triplicate.

COc1cc(/C=C/C(=O)O)ccc1O [Ferulic acid, ferulic acid]
DPPH Radical Scavenging Activity, IC50 Value: 45.2 ± 0.3 µg/mL

Cc1ncc(C[n+]2csc(CCO)c2C)c(N)n1 [Thiamine, thiamine]
DPPH Radical Scavenging Activity, IC50 Value: >500 µg/mL

O=C(O)/C=C/c1ccc(O)c(O)c1 [Caffeic acid, caffeic acid]
DPPH Radical Scavenging Activity, IC50 Value: 25.3 ± 0.3 µg/mL

O=c1cc(-c2ccc(O)cc2)oc2cc(O)cc(O)c12 [Apigenin, apigenin]
DPPH Radical Scavenging Activity, IC50 Value: 31.6 ± 0.9 µg/mL

O=C(O)c1cc(O)c(O)c(O)c1 [Gallic acid, gallic acid]
DPPH Radical Scavenging Activity, IC50 Value: 21.1 ± 0.3 µg/mL
